# Source: the OPERA property sets (Mansouri et al. 2018)
row,logP,SMILES
1,4.03,COc1ccc(C(=O)Nc2ccc3nn(C4CCCC4)nc3c2)cc1
2,2.38,COc1cc(C(=O)Nc2ccc3nn(C)nc3c2)cc(OC)c1OC
3,4.57,O=C(Nc1ccc2nn(C3CCCCC3)nc2c1)c1ccc([N+](=O)[O-])cc1
4,4.45,O=C(Nc1ccc2nn(C3CCCCC3)nc2c1)c1ccccc1
5,1.22,Cn1nc2ccc(NC(=O)CCl)cc2n1
6,3.13,Cn1nc2ccc(NC(=O)c3ccc(Cl)cc3)cc2n1
7,2.53,Cn1nc2ccc(NC(=O)c3ccc([N+](=O)[O-])cc3)cc2n1
8,3.87,O=C(Nc1ccc2nn(C3CCCCC3)nc2c1)C(Cl)Cl
9,5.85,O=C(Nc1ccc2nn(C3CCCCC3)nc2c1)c1ccc(Cl)c(Cl)c1
10,2.44,Cn1nc2ccc(NC(=O)c3ccccc3)cc2n1
11,4.45,COc1cc(C(=O)Nc2ccc3nn(C4CCCCC4)nc3c2)cc(OC)c1OC
